Data set [1] addresses T1, FgrGaOx (galactose oxidase) (Fusarium graminearum, UniProt P0CS93).
T1 construct: gene GAOA
The class given is biochemical.

Data set [2] concerns the target T2, PruAA5_2A (Penicillium rubens, UniProt B6HHT0).
T2 construct: gene Pc21g18600; recombinant from P. pastoris
T2 sequence (B6HHT0 22-657): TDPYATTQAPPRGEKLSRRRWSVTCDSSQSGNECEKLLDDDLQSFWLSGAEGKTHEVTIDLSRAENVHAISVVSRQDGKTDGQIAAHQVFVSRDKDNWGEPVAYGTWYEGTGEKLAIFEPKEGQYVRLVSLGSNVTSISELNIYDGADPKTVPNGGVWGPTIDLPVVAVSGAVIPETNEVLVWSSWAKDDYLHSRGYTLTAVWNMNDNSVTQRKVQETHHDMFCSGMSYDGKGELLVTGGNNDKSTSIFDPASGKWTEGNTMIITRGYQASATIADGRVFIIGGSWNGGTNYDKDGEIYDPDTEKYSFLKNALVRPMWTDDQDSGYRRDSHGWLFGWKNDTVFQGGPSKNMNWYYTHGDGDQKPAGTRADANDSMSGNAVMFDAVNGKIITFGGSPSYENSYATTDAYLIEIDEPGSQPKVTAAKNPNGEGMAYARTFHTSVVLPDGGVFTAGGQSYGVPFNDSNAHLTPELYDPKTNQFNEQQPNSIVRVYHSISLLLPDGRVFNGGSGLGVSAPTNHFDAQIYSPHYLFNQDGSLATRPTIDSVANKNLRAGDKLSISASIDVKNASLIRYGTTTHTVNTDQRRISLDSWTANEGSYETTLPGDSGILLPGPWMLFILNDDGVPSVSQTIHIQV
Nature of the data set: purified enzyme specific activity and kinetics (HRP/ABTS assay). The class given is biochemical.

The target of data set [3] is T2, PruAA5_2A. The experiment in a line: purified enzyme specific activity at […] (HRP/ABTS assay). It is filed as biochemical.
In data set [4] the target is T2, PruAA5_2A. The experiment in a line: purified enzyme kinetics (HRP/ABTS assay) and MS of the C-6 oxidized product; […] U/mg at […]. The class given is biochemical.
Data set [5] concerns the target T1, FgrGaOx (galactose oxidase). The class given is biochemical. The source holds these as a separate data set.
Substrate in the data set “purified protein”: OC1COC(O)CO1
The experiment in a line: purified protein. The note with it: copper; Tyr-Cys radical cofactor. The class given is biochemical, Penicillium rubens.

T1 sequence (P0CS93 42-680 limits assumed): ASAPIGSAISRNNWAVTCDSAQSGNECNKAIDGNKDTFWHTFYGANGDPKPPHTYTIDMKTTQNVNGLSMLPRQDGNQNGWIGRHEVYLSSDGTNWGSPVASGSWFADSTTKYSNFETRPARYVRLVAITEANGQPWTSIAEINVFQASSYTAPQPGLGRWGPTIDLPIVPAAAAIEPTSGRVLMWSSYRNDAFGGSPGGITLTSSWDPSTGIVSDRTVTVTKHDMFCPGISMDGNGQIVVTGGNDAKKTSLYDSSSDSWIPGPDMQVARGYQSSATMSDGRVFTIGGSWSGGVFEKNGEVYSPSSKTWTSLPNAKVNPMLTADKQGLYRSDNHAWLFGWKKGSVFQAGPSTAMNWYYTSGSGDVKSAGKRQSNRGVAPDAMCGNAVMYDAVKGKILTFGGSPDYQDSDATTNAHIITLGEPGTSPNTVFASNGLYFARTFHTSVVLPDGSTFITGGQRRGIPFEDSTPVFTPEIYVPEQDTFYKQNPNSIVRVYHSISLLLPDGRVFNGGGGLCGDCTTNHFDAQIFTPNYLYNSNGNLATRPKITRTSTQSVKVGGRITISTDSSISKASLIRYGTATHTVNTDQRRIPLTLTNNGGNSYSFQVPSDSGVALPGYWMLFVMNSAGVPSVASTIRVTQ

As to `OC[C@H]1OC(O)[C@H](O)[C@@H](O)[C@H]1O` (stereo partly shown) [galactose], the “purified enzyme kinetics (HRP/ABTS assay), kcat/KM 20 s^-1*mM^-1” value in data set [1] was 20000 M⁻¹ s⁻¹.
As to `OCC(O)CO` [glycerol], the “purified enzyme specific activity and kinetics (HRP/ABTS assay)” value at PruAA5_2A [2] turned out to be 22.5 U/mg.
`OC[C@H]1O[C@H](OC[C@H]2OC(O)[C@H](O)[C@@H](O)[C@@H]2O)[C@H](O)[C@@H](O)[C@H]1O` (stereo partly shown) [melibiose]: at PruAA5_2A [3], the “purified enzyme specific activity at 300 mM (HRP/ABTS assay)” value is given as 17.5 U/mg.
For the molecule `OC[C@H]1O[C@H](OC[C@H]2O[C@H](O[C@]3(CO)O[C@H](CO)[C@@H](O)[C@@H]3O)[C@H](O)[C@@H](O)[C@@H]2O)[C@H](O)[C@@H](O)[C@H]1O` [raffinose], the “purified enzyme kinetics (HRP/ABTS assay) and MS of the C-6 oxidized product; 31” value at PruAA5_2A [4] is reported as 31.4 U/mg. The “purified enzyme kinetics (HRP/ABTS assay), kcat/KM 30 s^-1*mM^-1” value in data set [5] is 30000 M⁻¹ s⁻¹.
With `OC[C@H]1O[C@H](OC[C@H]2O[C@H](OC[C@H]3O[C@H](O[C@]4(CO)O[C@H](CO)[C@@H](O)[C@@H]4O)[C@H](O)[C@@H](O)[C@@H]3O)[C@H](O)[C@@H](O)[C@H]2O)[C@H](O)[C@@H](O)[C@H]1O` [stachyose], at PruAA5_2A [3], the “purified enzyme specific activity at 300 mM (HRP/ABTS assay)” value is recorded as 9.4 U/mg.

B1: PruAA5_2A (Penicillium rubens Wisconsin 54-1255) (protein)
chain: T2 sequence (B6HHT0 22-657)
notes: recombinant from P. pastoris
The Km is the concentration of substrate that gives half-maximal velocity. For the molecule B1, the Km in the data set “purified protein” turned out to be 53 mM.
